Assay results reported in ChEMBL document CHEMBL1201862, “PubChem BioAssay data set” (2004).
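Cultured in 96-well plates, cells were exposed to test compound for 48 hours across five concentrations. GI50: concentration for 50% inhibition of growth.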 The source made the active and inactive calls. No stated cut-off is given here; in the data, active = GI50 up to about 1.1 µM and inactive = higher.

Legend:
Assay in all cases: inhibition of tumour cell growth, NCI panel, 48 h
SNB-75 = system: SNB-75
KM12 = system: KM12
SNB-19 = system: SNB-19
U-251 = system: U-251
Malme-3M = system: Malme-3M
NCI/ADR-RES = system: NCI/ADR-RES
SF-295 = system: SF-295
BT-549 = system: BT-549
SK-MEL-28 = system: SK-MEL-28
SK-MEL-5 = system: SK-MEL-5
TK-10 = system: TK-10
OVCAR-5 = system: OVCAR-5
NCI-H23 = system: NCI-H23
OVCAR-8 = system: OVCAR-8
MDA-MB-435 = system: MDA-MB-435
PC-3 = system: PC-3
HCT-116 = system: HCT-116
HT-29 = system: HT-29
HL-60 = system: HL-60
A498 = system: A498
M14 = system: M14
EKVX = system: EKVX
SW-620 = system: SW-620
UACC-257 = system: UACC-257
UO-31 = system: UO-31
NCI-H226 = system: NCI-H226
786-0 = system: 786-0
HCT-15 = system: HCT-15
HOP-92 = system: HOP-92
UACC-62 = system: UACC-62
T47D = system: T47D
MCF7 = system: MCF7
COLO 205 = system: COLO 205
IGROV-1 = system: IGROV-1
RXF 393 = system: RXF 393
Hs-578T = system: Hs-578T
NCI-H460 = system: NCI-H460
SF-268 = system: SF-268
ACHN = system: ACHN
RPMI-8226 = system: RPMI-8226
A549 = system: A549
K562 = system: K562
HCC 2998 = system: HCC 2998
HOP-62 = system: HOP-62
SK-OV-3 = system: SK-OV-3
SR = system: SR
CCRF-CEM = system: CCRF-CEM
SF-539 = system: SF-539
MDA-N = system: MDA-N
DU-145 = system: DU-145
SN12C = system: SN12C
OVCAR-3 = system: OVCAR-3
MOLT-4 = system: MOLT-4
LOX IMVI = system: LOX IMVI
NCI-H522 = system: NCI-H522
CAKI-1 = system: CAKI-1
OVCAR-4 = system: OVCAR-4
SK-MEL-2 = system: SK-MEL-2

With CON(C)C(=O)C(Cc1ccccc1)NC(=O)OC(C)(C)C (stereo not given) the GI50 (SNB-75) was > 100 µM (inactive), the GI50 (KM12) was > 100 µM (inactive) and the GI50 (SNB-19) was > 100 µM (inactive). For the same compound, the GI50 (U-251) was > 100 µM (inactive), the GI50 (Malme-3M) was > 100 µM (inactive) and the GI50 (NCI/ADR-RES) was > 100 µM (inactive). The GI50 (SF-295) was > 100 µM (inactive), the GI50 (BT-549) was > 100 µM (inactive) and the GI50 (SK-MEL-28) was > 100 µM (inactive). The GI50 (SK-MEL-5) was > 100 µM (inactive), the GI50 (TK-10) was > 100 µM (inactive) and the GI50 (OVCAR-5) was > 100 µM (inactive). The GI50 (NCI-H23) was > 100 µM (inactive), the GI50 (OVCAR-8) was > 100 µM (inactive) and the GI50 (MDA-MB-435) was > 100 µM (inactive). The GI50 (PC-3) was > 100 µM (inactive), the GI50 (HCT-116) was > 100 µM (inactive) and the GI50 (HT-29) was > 100 µM (inactive). The GI50 (HL-60) was > 100 µM (inactive), the GI50 (A498) was > 100 µM (inactive) and the GI50 (M14) was > 100 µM (inactive). For the same compound, the GI50 (EKVX) was > 100 µM (inactive), the GI50 (SW-620) was > 100 µM (inactive) and the GI50 (UACC-257) was > 100 µM (inactive). For the same compound, the GI50 (UO-31) was > 100 µM (inactive), the GI50 (NCI-H226) was > 100 µM (inactive) and the GI50 (786-0) was > 100 µM (inactive). For the same compound, the GI50 (HCT-15) was > 100 µM, the GI50 (HOP-92) was > 100 µM (inactive) and the GI50 (UACC-62) was > 100 µM (inactive). For the same compound, the GI50 (T47D) was > 100 µM (inactive), the GI50 (MCF7) was > 100 µM (inactive) and the GI50 (COLO 205) was > 100 µM (inactive). For the same compound, the GI50 (IGROV-1) was > 100 µM (inactive), the GI50 (RXF 393) was > 100 µM (inactive) and the GI50 (Hs-578T) was > 100 µM (inactive). For the same compound, the GI50 (NCI-H460) was > 100 µM (inactive), the GI50 (SF-268) was > 100 µM (inactive) and the GI50 (ACHN) was > 100 µM (inactive). For the same compound, the GI50 (RPMI-8226) was > 100 µM (inactive), the GI50 (A549) was > 100 µM (inactive) and the GI50 (K562) was > 100 µM (inactive). The GI50 (HCC 2998) was > 100 µM (inactive), the GI50 (HOP-62) was > 100 µM (inactive) and the GI50 (SK-OV-3) was > 100 µM (inactive). The GI50 (SR) was > 100 µM (inactive), the GI50 (CCRF-CEM) was > 100 µM (inactive) and the GI50 (SF-539) was > 100 µM (inactive). The GI50 (MDA-N) was > 100 µM (inactive), the GI50 (DU-145) was > 100 µM (inactive) and the GI50 (SN12C) was > 100 µM (inactive). For the same compound, the GI50 (OVCAR-3) was > 100 µM (inactive) and the GI50 (MOLT-4) was > 100 µM (inactive).

For CC(=O)N(C)c1ccc(Nc2ccnc3ccc4nn(C)nc4c23)cc1, the GI50 (SNB-75) was 21.3 µM (inactive), the GI50 (KM12) was 24.4 µM (inactive) and the GI50 (SNB-19) was 37.3 µM (inactive). For the same compound, the GI50 (U-251) was 33.5 µM (inactive), the GI50 (Malme-3M) was 18.9 µM (inactive) and the GI50 (NCI/ADR-RES) was 28.1 µM (inactive). For the same compound, the GI50 (SF-295) was 21.8 µM (inactive), the GI50 (BT-549) was 31.8 µM (inactive) and the GI50 (SK-MEL-28) was 20.7 µM (inactive). The GI50 (SK-MEL-5) was 19.9 µM (inactive), the GI50 (LOX IMVI) was 16 µM (inactive) and the GI50 (TK-10) was 22.3 µM (inactive). The GI50 (OVCAR-5) was 30.1 µM (inactive), the GI50 (NCI-H23) was 32.4 µM (inactive) and the GI50 (NCI-H522) was 19 µM (inactive). The GI50 (OVCAR-8) was 36.1 µM (inactive), the GI50 (MDA-MB-435) was 39.3 µM (inactive) and the GI50 (PC-3) was 26.9 µM (inactive). The GI50 (HCT-116) was 19 µM (inactive), the GI50 (HT-29) was 29.4 µM (inactive) and the GI50 (HL-60) was 18.4 µM (inactive). For the same compound, the GI50 (CAKI-1) was 12.2 µM (inactive), the GI50 (M14) was 31.4 µM (inactive) and the GI50 (EKVX) was 24.3 µM (inactive). For the same compound, the GI50 (SW-620) was 35.3 µM (inactive), the GI50 (UACC-257) was 21.7 µM (inactive) and the GI50 (OVCAR-4) was 28.4 µM (inactive). For the same compound, the GI50 (UO-31) was 9.02 µM (inactive), the GI50 (NCI-H226) was 15.6 µM (inactive) and the GI50 (786-0) was 26.9 µM (inactive). For the same compound, the GI50 (HCT-15) was 21.5 µM, the GI50 (SK-MEL-2) was 17.9 µM (inactive) and the GI50 (UACC-62) was 16.1 µM (inactive). The GI50 (T47D) was 20.1 µM (inactive), the GI50 (MCF7) was 13.4 µM (inactive) and the GI50 (COLO 205) was 19.1 µM (inactive). For the same compound, the GI50 (RXF 393) was 16.9 µM (inactive), the GI50 (Hs-578T) was 17.3 µM (inactive) and the GI50 (SF-268) was 24.8 µM (inactive). For the same compound, the GI50 (ACHN) was 13.7 µM (inactive), the GI50 (RPMI-8226) was 20.3 µM (inactive) and the GI50 (A549) was 17.5 µM (inactive). The GI50 (HOP-62) was 26 µM (inactive), the GI50 (SK-OV-3) was 22.6 µM (inactive) and the GI50 (SR) was 25.6 µM (inactive). The GI50 (CCRF-CEM) was 17.3 µM (inactive), the GI50 (SF-539) was 19.2 µM (inactive) and the GI50 (MDA-N) was 36.1 µM (inactive). The GI50 (DU-145) was 28.6 µM (inactive), the GI50 (SN12C) was 26 µM (inactive) and the GI50 (OVCAR-3) was 19.3 µM (inactive). For the same compound, the GI50 (MOLT-4) was 13.6 µM (inactive).

CC(C)(C)c1ccc(C(C)(C)C)c(N2C(=O)C3ON=C(c4ccc([N+](=O)[O-])cc4)C3C2=O)c1 (stereo not given) was tested, and the GI50 (SNB-75) was 5.07 µM (inactive), the GI50 (KM12) was > 25 µM (inactive) and the GI50 (SNB-19) was > 25 µM (inactive). The GI50 (Malme-3M) was > 25 µM (inactive), the GI50 (NCI/ADR-RES) was 17.3 µM (inactive) and the GI50 (SF-295) was 12.9 µM (inactive). For the same compound, the GI50 (BT-549) was > 25 µM (inactive), the GI50 (SK-MEL-28) was > 25 µM (inactive) and the GI50 (SK-MEL-5) was > 25 µM (inactive). For the same compound, the GI50 (LOX IMVI) was 9.04 µM (inactive), the GI50 (TK-10) was > 25 µM (inactive) and the GI50 (OVCAR-5) was > 25 µM (inactive). The GI50 (NCI-H23) was > 25 µM (inactive), the GI50 (NCI-H522) was 18.4 µM (inactive) and the GI50 (OVCAR-8) was 10.4 µM (inactive). For the same compound, the GI50 (MDA-MB-435) was 8.77 µM (inactive), the GI50 (HCT-116) was 13.7 µM (inactive) and the GI50 (HT-29) was 21.4 µM (inactive). The GI50 (HL-60) was > 25 µM (inactive), the GI50 (A498) was 5.96 µM (inactive) and the GI50 (CAKI-1) was > 25 µM (inactive). For the same compound, the GI50 (M14) was > 25 µM (inactive), the GI50 (EKVX) was 20.3 µM (inactive) and the GI50 (SW-620) was 16.2 µM (inactive). The GI50 (UACC-257) was > 25 µM (inactive), the GI50 (OVCAR-4) was 8.57 µM (inactive) and the GI50 (UO-31) was 22.1 µM (inactive). For the same compound, the GI50 (NCI-H226) was 18.6 µM (inactive), the GI50 (786-0) was 3.15 µM (inactive) and the GI50 (HCT-15) was 20.3 µM. The GI50 (HOP-92) was 9.46 µM (inactive), the GI50 (UACC-62) was 17.8 µM (inactive) and the GI50 (T47D) was > 25 µM (inactive). The GI50 (MCF7) was 22.8 µM (inactive), the GI50 (COLO 205) was > 25 µM (inactive) and the GI50 (IGROV-1) was 4.5 µM (inactive). For the same compound, the GI50 (RXF 393) was 15.1 µM (inactive), the GI50 (Hs-578T) was 6.98 µM (inactive) and the GI50 (NCI-H460) was 6.75 µM (inactive). For the same compound, the GI50 (SF-268) was 13.7 µM (inactive), the GI50 (ACHN) was 15.2 µM (inactive) and the GI50 (RPMI-8226) was 10 µM (inactive). For the same compound, the GI50 (A549) was 5.61 µM (inactive), the GI50 (K562) was 11 µM (inactive) and the GI50 (HCC 2998) was 5.02 µM (inactive). The GI50 (HOP-62) was 23.4 µM (inactive), the GI50 (SK-OV-3) was > 25 µM (inactive) and the GI50 (SR) was 3.48 µM (inactive). The GI50 (CCRF-CEM) was > 25 µM (inactive), the GI50 (SF-539) was > 25 µM (inactive) and the GI50 (MDA-N) was 7.38 µM (inactive). The GI50 (DU-145) was 10.8 µM (inactive), the GI50 (SN12C) was > 25 µM (inactive) and the GI50 (OVCAR-3) was 10.5 µM (inactive). For the same compound, the GI50 (MOLT-4) was > 25 µM (inactive).
